Experimental data taken from patent US20110046378A1, “Novel Imaging Agents for Detecting Neurological Dysfunction” (SIEMENS MEDICAL SOLUTIONS USA, INC., priority 2008, published 2011).
Like-named read-outs stand apart in the source and are kept apart here. One block for each compound: values may come before it.

Columns and labels:
[1] = test system: Amyloid (AD brain slices); experiment: [18F]-CB001 competition studies on AD brain slices; format: binding, human
[2] = MicroPET dynamic scan of rat brain after tail vein injection; format: in vivo, white Sprague-Dawley rat; conditions: 30 min dynamic scan
Method: A white Sprague-Dawley rat was injected via tail vein with ˜850 uCi AD-CB-001, formulated in 10% EtOH:water. A dynamic scan was conducted for 30 min on a R4 microPET scanner. The data was reconstructed using 1 min framing.

[3] = molecular target: T1, Amyloid (AD patient's brain slice) (Homo sapiens, UniProt P05067); experiment: IC50 determination with [18F]-PiB by ex vivo competition assay using autoradiography staining; format: binding; conditions: for blocking of [18F]-PiB tissue binding, qualitative: human AD brains
T1 construct: The brain slices were 20 um thick
Text: (§1) Ex Vivo Competition Assay Using Amyloid (AD patient's brain slice) Autoradiography Staining

[4] = test system: Amyloid (AD patient's brain slice); experiment: Amyloid autoradiography staining of AD patient's brain slices, grey/white matter binding with wash protocols; design: species or system human; conditions: for Grey/white matter binding ratio using mild wash conditions: 30%/40%/20% EtOH:water; for order of (non-specific) white matter binding: AD brain slices; for amyloid autoradiography staining (ex vivo), qualitative: AD patient's brain / normal brain; for grey to white matter binding ratio: human AD brain slices, EtOH:water washes
Method: as §1
A study was conducted to examine the grey to white matter binding ratios for 4 different tracers: CB-001, CB-003, FDDNP and F-PiB (FIG. 7 and FIG. 8). […] After the human brain slices from AD patients were incubated with a given tracer for 30 min, the slices were washed with various EtOH:water solutions in an attempt to optimize the grey-to white matter ratios (FIG. 9). The results were surprising and unexpected in view of previous work performed by other researchers. CB-001 has a slightly higher c Log P than FDDNP (3.8 vs 3.4) and would be expected to have poorer washout than FDDNP based on these values. […] More specifically, the white matter binding of FDDNP is several shades darker than CB-001's white matter binding, indicating low non-specific binding of CB-001.

[5] = MicroPET imaging in WT and App mice; format: in vivo; conditions: for brain clearance / washout rate: WT and App mice brain, compared with [18F]PiB
Aβ fibrils = conditions: read-out: Binding Affinity Ki; cited from earlier work
Aβ 1-42 aggregates = molecular target: T2, Aβ 1-42 aggregates (Homo sapiens, UniProt P05067); conditions: read-out: Binding Affinity Ki; cited from earlier work
T2 construct: Aβ 1-42 aggregates

[6] = molecular target: Aβ42 insoluble aggregates (Homo sapiens, UniProt P05067); experiment: Surface plasmon resonance (Biacore) assay, Aβ42 insoluble aggregates; conditions: SPR; read-out: binding to insoluble aggregates
Aβ42 soluble aggregates = Aβ42 soluble aggregates (Homo sapiens, UniProt P05067); experiment: Surface plasmon resonance (Biacore) assay, Aβ42 soluble aggregates; conditions: SPR; read-out: binding to soluble aggregates
[7] = determination 1, vs [18F]-PiB, read-out: IC50 1
[8] = mean of determinations, vs [18F]-PiB, read-out: Average IC50
[9] = 30 min incubation, PBS, PBS, 20 um AD brain slices

T1 sequence (P05067 672-711 limits assumed): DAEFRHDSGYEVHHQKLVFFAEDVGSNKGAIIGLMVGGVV
Sequence of Aβ42 insoluble aggregates (P05067 672-713 limits assumed): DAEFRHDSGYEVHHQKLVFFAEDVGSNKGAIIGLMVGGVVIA
Sequence of Aβ42 soluble aggregates (P05067 672-713 limits assumed): as above
T2 sequence (P05067 672-713 limits assumed): as above

IC50 [3, 7]: 1000 nM | IC50 ([3]; determination 2, vs [18F]-PiB, read-out: IC50 2): 480 nM | IC50 [3, 8]: 740 nM | Grey/white matter binding ratio using mild wash conditions [4, 9]: Poor | Grey/white matter binding ratio using harsh FDDNP wash conditions ([4]; 30 min incubation, PBS, 70%/90%/70% EtOH:water, PBS, 20 um AD brain slices): Excellent | order of (non-specific) white matter binding [4]: FDDNP>CB001>[18F]-PiB>CB003 | brain uptake, qualitative ([5]; App and WT mice, microPET): very good brain uptake
Structure (SMILES): FCCOc1ccc2c(c1)[nH]c1ccccc12 [CB-001, 2-(2-fluoroethoxy)-9H-carbazole]
plaque binding of the tracer in competition studies ([1]; AD brain slices): reversible plaque binding and competition with PiB, and little/no white matter binding | blocking of [18F]-CB001 staining ([1]; cold competitor, increasing concentrations): PiB appears to block tracer binding with the same strength as cold CB001 | brain entry and washout, qualitative [2]: Within minutes, the tracer entered the rat brain and quickly washed out | amyloid autoradiography staining (ex vivo), qualitative [4]: good amyloid binding and little/no white matter binding | grey to white matter binding ratio ([4]; 30 min incubation): much better grey to white matter ratio compared to FDDNP

Structure (SMILES): CNc1ccc(-c2nc3ccc(O)cc3s2)cc1 [PiB, reference compound]
Ki (Aβ fibrils): 2.8 nM

Structure (SMILES): CNc1ccc(/C=C2\Oc3ccc([125I])cc3C2=O)cc1 [Aurones]
Ki (Aβ 1-42 aggregates): 1.24 nM

IC50 [3, 7]: 1100 nM | IC50 ([3]; determination 6, vs [18F]-PiB, read-out: IC50 6): 900 nM | IC50 ([3]; determination 13, vs [18F]-PiB, read-out: IC50 13): 920 nM | IC50 [3, 8]: 973 nM | Kd [6]: 9 nM | Grey/white matter binding ratio using mild wash conditions [4, 9]: Excellent | order of (non-specific) white matter binding [4]: FDDNP>CB001>[18F]-PiB>CB003 | Kd (Aβ42 soluble aggregates): 262 nM | brain clearance / washout rate [5]: faster washout rate than 18F-PiB | brain clearance / washout rate ([5]; listed as [18F]-CB003): much faster than with [18F]PiB | larger brain/muscle ratio of App mice compared to WT mice ([5]; microPET): up to 25%
Structure (SMILES): FCCOCCOCCOc1ccc2c(c1)[nH]c1ccccc12 [CB-003, 2-(2-(2-(2-fluoroethoxy)ethoxy)ethoxy)-9H-carbazole]
blocking of [18F]-PiB tissue binding, qualitative [3]: still competes with 18F-PiB for binding sites in human AD brains | blocking of [18F]-PiB tissue binding, qualitative ([3]; listed as CB003): concentration-dependent blocking of [18F]-PiB tissue binding | amyloid autoradiography staining (ex vivo), qualitative [4]: amyloid deposits were clearly visible in the grey matter with little white matter uptake | amyloid autoradiography staining (ex vivo), qualitative ([4]; listed as [18F]-CB003): clearly distinguishes between Alzheimer's and normal brains | grey to white matter binding ratio ([4]; 30 min incubation): excellent grey to white matter binding ratios
